Laboratory results from patent EP1760056A1, “A convenient method for the preparation of no-carrier-added O-(2-[18F]fluoroethyl)-L-Tyrosine)” (Institute of Nuclear Energy Research, priority 2005, dated 2007).
Read-outs that look alike come from different tables or passages of the source.

How the values were obtained:
F98 glioma cells [1] = assay: L-[18F]FET uptake by F98 glioma tumor cells; format: cell-based, rat; conditions: 10 µCi/well
Description: • (1) In five six-well plates, put 1×10^6 F98 glioma cells and 2 ml DMEM (1g glucose/1) into three wells. • (2) Total of five time points (2, 5, 10, 30 minute and 1hour) in this experiment and each time point use one six-well plate. • (3) Predetermined activity of L-[^18F]FET or [^18F]FDG (10 µCi/well) is added into each well during the experiment. […] F98 glioma cells intake L-[^18F]FET rapidly and maximal accumulation will reach after 10 minutes (uptake ratio 0.47%). As cell cannot metabolize L-[^18F]FET, therefore, the rate of L-[^18F]FET transportation by the cells become balance after ten minutes when add L-[^18F]FET; the accumulation of L-[^18F]FET in glioma cells only slightly decrease after 1 hour (uptake ratio 0.41%).

[2] = Biological distribution of L-[18F]FET in F98 glioma-bearing Fischer 344 rat; conditions: in vivo, iv; for tissue uptake at 0.25 h: 15 min after injection via tail vein; for tissue uptake at 0.5 h: 30 min after injection via tail vein; for tissue uptake at 1 h: 60 min after injection via tail vein; for tissue uptake at 2 h: 120 min after injection via tail vein
Description: (§1) • (1) Total of twenty Fischer 344 male rats will be assessed in vivo for L-[^18F]FET biological distribution. Use the intersection of bregma and sagittal midlines as original point; so as to implant F98 glioma cells (1 × 10^5cells /10 µl) at the place of 3mm left 5mm upward and 5mm depth. Biological distribution test will be carry out after 11~12 days of brain tumor implantation. • (2) Different volume of radioactive level is injected, injected volume of L-[^18F]FET for each Fischer 344 rat is 200~300µl, that is approximately 200~250 µCi of activity. • (3) Inject L-[^18F]FET via tail vein, and rats are sacrificed at 15, 30, 60, 90 and 120 minutes. • (4) Dissection of rat organ is right after sacrifice. Scissors off chest and abdomen fur alone the line from genital pore upward to jowl. Next, scissors off chest above xiphisternal transversely. Open ribs aside, take blood sample from venous sinus with 0.5 ml syringe. Withdraw the needle after depletion of blood and collect the extracted heart. Collect the lung lobes with forcep. • (5) Scissors off abdominal muscle from genital pore upward to the position below xiphisternal longitudinally. Then, scissors off the opening of upper and lower edges transversely, everts muscle layers to both sides and expose celiac organs. Search for bladder in lower abdomen and sequentially removes stomach, liver, spleen, small intestine, large intestine, kidney, and muscle. • (6) After turn over the rat, scissors off fur of shoulder and removes exposed subcutaneous tumor. Cut scalp upward at lower margin of cranium above foramen magnum and expose cranial bone. Then, cut cervical portion transversely at foramen magnum and expose spinal cord. Inserts foramen magnum with scissors' tip while attach the inner surface of cranium; such that scissors' tip can reach the frontal edge of cranial cavity in order to scissor off the center of cranium. Use scissors to open cranium aside and expose brain tissue. Alone skull base insert scissors deeply to the front edge of cranial cavity in order to remove left-brain, right-brain and brain tumor. • (7) Weight all organ samples; measure radioactivity with γ-counter and convert to %ID/g (% injection dose/g organ) of each organ for estimate the biological distribution of L-[^18F]FET. […] According to reports, L-[^18F]FET can pass through blood brain barrier (BBB) and enter brain by way of L amino acid transporter system. […] Tumor-to-normal brain ratio of L-[^18F]FET at 15, 30, 60, 90 and 120 minutes are 1.54, 1.74, 3.16, 3.14 and 2.34 respectively. Besides brain tumor, rat pancreas also accumulate large amount of L-[^18F]FET (0.98, 1.76, 2.55, 2.28 and 2.24 %ID/g respectively at 15, 30, 60, 90 and 120 minutes); the increasing radioactivity of L-[^18F]FET in pancreas is because of pancreas require large amount of amino acid for synthesis various enzymes and hormones. Some papers reported that patient with tumor observes no significant accumulation of radioactivity in pancreas when use positron emission tomography (PET), the discrepant results were assumed that human and rat have different metabolic pathway. Furthermore, biological distribution study of L-[^18F]FET indicated radioactivity accumulation in tumor cells (expressed by %ID/g) are much higher than other normal organs (left-brain, small intestine, kidney, liver, blood and muscle) except pancreas, this means L-[^18F]FET can be a potential PET agent for substantially different site of tumor. […] Table 1: Determination of accumulated radioactivity (%ID/g) in organs at different time points after injected L-[18F]FET into tumor-bearing rat

F98 glioma cells [3] = assay: as above; conditions: in vivo
Description: as §1

brain tumor (F98 glioma) = assay: PET and microPET imaging of tumor-bearing rat with L-[18F]FET; format: in vivo, rat (Fischer 344); conditions: 400 µCi into tail vein
Description: • (1) Positron emission tomography (PET) studies of tumor-bearing rat (Fischer 344) with L-[^18F]FET will be carry out after 11~12 days of brain tumor (F98 glioma) implantation. • (2) Producing processes of L-[^18F]FET as described above, and estimates its administrating amount of agent according to the level of radioactivity. • (3) At the very beginning, inject 400 µCi of L-[^18F]FET into tail vein. Temporarily anesthetize rats with ether at time of 0.5, 1, 1.5 and 2 hours. Fix rat on transparent acrylic board and place on PET table after securing stretched limbs on the board. Continuously anesthetize rats with isoflurane gas. Align implant portion of head with PET machine as to assure the fixation of original imaging position. • (4) Adjust background value by blank scan before PET imaging. • (5) Use Ga-68 radioactive source proceed transmission scan for adjust tissue attenuation. • (6) Commence PET and microPET imaging. Perform image processing after reconstruction of acquired image data; the coronal and cross section scans show in Figure 3 and 9. […] In contrast to tumor site, normal tissue have lower radioactivity accumulation of L-[^18F]FET because of lower amino acid requirement.

[4] = Liver, read-out: accumulated radioactivity
[5] = Lung, read-out: accumulated radioactivity
[6] = Muscle, read-out: accumulated radioactivity
[7] = Pancreas, read-out: accumulated radioactivity
[8] = Right brain, read-out: accumulated radioactivity

**Q.** For `N[C@@H](Cc1ccc(OCC[18F])cc1)C(=O)O` [L-[^18F]FET, O-(2-[^18F]fluoroethyl)-L-Tyrosine], which uptake ratio (F98 glioma cells [1]; after 10 minutes (maximal accumulation)) is on record?
**A.** Its uptake ratio is 0.47%.

**Q.** And the uptake ratio (F98 glioma cells [1]; after 1 hour)?
**A.** The uptake ratio was 0.41%.

**Q.** And the tissue uptake at 0.25 h [2, 4]?
**A.** The tissue uptake at 0.25 h was 0.27 ± 0.06 %ID/g.

**Q.** What about the tissue uptake at 0.5 h [2, 4] of the same molecule?
**A.** Its tissue uptake at 0.5 h is 0.37 ± 0.07 %ID/g.

**Q.** And the tissue uptake at 1 h [2, 4]?
**A.** The tissue uptake at 1 h was 0.41 ± 0.06 %ID/g.

**Q.** And the tissue uptake at 1.5 h ([2]; Liver, 90 min after injection via tail vein, read-out: accumulated radioactivity)?
**A.** Its tissue uptake at 1.5 h is 0.49 ± 0.01 %ID/g.

**Q.** What about the tissue uptake at 2 h [2, 4] of the same molecule?
**A.** Its tissue uptake at 2 h is 0.41 ± 0.09 %ID/g.

**Q.** What about the tissue uptake at 0.25 h [2, 5] of the same molecule?
**A.** Its tissue uptake at 0.25 h is 0.32 ± 0.05 %ID/g.

**Q.** What about the tissue uptake at 0.5 h [2, 5] of the same molecule?
**A.** The tissue uptake at 0.5 h was 0.43 ± 0.09 %ID/g.

**Q.** What about the tissue uptake at 1 h [2, 5] of the same molecule?
**A.** Its tissue uptake at 1 h is 0.43 ± 0.07 %ID/g.

**Q.** And the tissue uptake at 1.5 h ([2]; Lung, 90 min after injection via tail vein, read-out: accumulated radioactivity)?
**A.** Its tissue uptake at 1.5 h is 0.45 ± 0.02 %ID/g.

**Q.** And the tissue uptake at 2 h [2, 5]?
**A.** The tissue uptake at 2 h was 0.4 ± 0.06 %ID/g.

**Q.** And the tissue uptake at 0.25 h [2, 6]?
**A.** The tissue uptake at 0.25 h was 0.19 ± 0.03 %ID/g.

**Q.** What about the tissue uptake at 0.5 h [2, 6] of the same molecule?
**A.** Its tissue uptake at 0.5 h is 0.28 ± 0.01 %ID/g.

**Q.** And the tissue uptake at 1 h [2, 6]?
**A.** Its tissue uptake at 1 h is 0.36 ± 0.04 %ID/g.

**Q.** And the tissue uptake at 1.5 h ([2]; Muscle, 90 min after injection via tail vein, read-out: accumulated radioactivity)?
**A.** The tissue uptake at 1.5 h was 0.44 ± 0.1 %ID/g.

**Q.** What about the tissue uptake at 2 h [2, 6] of the same molecule?
**A.** The tissue uptake at 2 h was 0.37 ± 0.1 %ID/g.

**Q.** What about the tissue uptake at 0.25 h [2, 7] of the same molecule?
**A.** The tissue uptake at 0.25 h was 0.98 %ID/g.

**Q.** And the tissue uptake at 0.5 h [2, 7]?
**A.** Its tissue uptake at 0.5 h is 1.76 %ID/g.

**Q.** And the tissue uptake at 1 h [2, 7]?
**A.** Its tissue uptake at 1 h is 2.55 %ID/g.

**Q.** What about the tissue uptake at 1.5 h ([2]; Pancreas, 90 min after injection via tail vein, read-out: accumulated radioactivity) of the same molecule?
**A.** Its tissue uptake at 1.5 h is 2.28 %ID/g.

**Q.** And the tissue uptake at 2 h [2, 7]?
**A.** The tissue uptake at 2 h was 2.24 %ID/g.

**Q.** And the tissue uptake at 0.25 h [2, 8]?
**A.** The tissue uptake at 0.25 h was 0.07 ± 0.02 %ID/g.

**Q.** What about the tissue uptake at 0.5 h [2, 8] of the same molecule?
**A.** The tissue uptake at 0.5 h was 0.21 ± 0.03 %ID/g.

**Q.** And the tissue uptake at 1 h [2, 8]?
**A.** Its tissue uptake at 1 h is 0.34 ± 0.03 %ID/g.

**Q.** And the tissue uptake at 1.5 h ([2]; Right brain, 90 min after injection via tail vein, read-out: accumulated radioactivity)?
**A.** Its tissue uptake at 1.5 h is 0.48 ± 0.08 %ID/g.

**Q.** And the tissue uptake at 2 h [2, 8]?
**A.** Its tissue uptake at 2 h is 0.34 ± 0.04 %ID/g.

**Q.** What about the tissue uptake at 1.5 h ([2]; maximum accumulation in normal brain tissue) of the same molecule?
**A.** The tissue uptake at 1.5 h was 0.48 %ID/g.

**Q.** What about the Tumor-to-normal brain ratio (F98 glioma cells [3]; 15 min) of the same molecule?
**A.** Its Tumor-to-normal brain ratio is 1.54.

**Q.** What about the Tumor-to-normal brain ratio (F98 glioma cells [3]; 30 min) of the same molecule?
**A.** Its Tumor-to-normal brain ratio is 1.74.

**Q.** What about the Tumor-to-normal brain ratio (F98 glioma cells [3]; 60 min) of the same molecule?
**A.** Its Tumor-to-normal brain ratio is 3.16.

**Q.** And the Tumor-to-normal brain ratio (F98 glioma cells [3]; 90 min)?
**A.** Its Tumor-to-normal brain ratio is 3.14.

**Q.** What about the Tumor-to-normal brain ratio (F98 glioma cells [3]; 120 min) of the same molecule?
**A.** The Tumor-to-normal brain ratio was 2.34.

**Q.** And the “radioactivity accumulation in brain tumor” value (brain tumor (F98 glioma))?
**A.** Its value is “significant radioactivity accumulation in brain tumor”.

**Q.** And the “time of maximum uptake in brain tumor” value (brain tumor (F98 glioma); time after injection)?
**A.** Its value is 90 min.
